Data on four compounds can be found in patent publication US20030207843A1, “Treatment of drug-resistant human immunodeficiency virus infection” (priority 1999, published 2003).

What all share (type): cell-based
In one assay the test system is HIV-1LAI L214F. The assay can be described thus: p24 reduction assay in MT-2 cells, L214F. Particulars: Table 8. The method, then:
(§1) Cells. MT-2 cells (AIDS Research and Reference Reagent Program, National Institute of Allergy and Infectious Diseases, National Institutes of Health) were maintained in RPMI 1640 supplemented with 10% fetal bovine serum (FBS; JRH Biosciences, Lenexa, Kans.), 10 mM HEPES buffer, 50 IU/ml penicillin and 50 μg/ml streptomycin.
(§2) Antiviral Susceptibility Assays. The antiviral activity of each compound was determined by inoculating MT-2 cells with HIV-1LAI at a multiplicity of infection (MOI) of 0.01 TCID50/cell, followed by incubation in the presence of three-fold serial drug dilutions (3 wells per dilution) (see Mellors, et. al., Antimicrob. Agents Chemother. 39:1087-1092). Five or seven days after infection, culture supernatants were harvested, lysed with 0.5% triton-X 100 and assayed for p24 antigen concentration using a commercial ELISA assay (DuPont, NEN Products, Wilmington, Del.). The antiviral activity of the compounds is expressed as the IC50, which is the concentration required to inhibit 50% of p24 antigen production. The fold-resistance of a test virus is calculated by dividing the IC50 of the test virus by the IC50 of the HIV-1LAI control virus.
(§3) Generation of Mutant Recombinant HIV-1. […]
(§4) Recombinant viruses containing the mutations selected by invention compounds were also evaluated for their susceptibility to AZT, as shown in Table 8.

Another assay has as its system HIV-1LAI M164I. As to the kind of experiment: p24 reduction assay in MT-2 cells, M164I. As to conditions: Table 8. The method, then: as §1, §2, §3, §4
For a further assay, the system named is HIV-1LAI S117T/4XAZT. The assay can be described thus: p24 reduction assay in MT-2 cells, S117T/4XAZT. Particulars: Table 8. The method, then:
as §1, §2, §3, §4

The next assay has as its system HIV-1LAI M164I/4XAZT. The assay can be described thus: p24 reduction assay in MT-2 cells, M164I/4XAZT. Particulars: Table 8. On the procedure:
as §1, §2, §3, §4

Assay [1] concerns HIV-1LAI selected with EB-PFA, passage 15 (W88G, L214F). The assay can be described thus: Susceptibility of virus selected in vitro with EB-PFA. On the procedure:
as §2
(§5) Selection of Resistant Viruses. […] Viral cytopathic effects (CPE) were monitored daily. […] The passaged virus was monitored regularly for a reduction in susceptibility to the compounds by determining the EC50 relative to unpassaged HIV-1LAI (Mellors, et. al., Antimicrob. Agents Chemother. 39:1087-1092). […]

Assay [2] has as its system HIV-1LAI selected with MB-PFA, passage 15. As to the kind of experiment: Susceptibility of virus selected in vitro with MB-PFA. On the procedure:
as §2
Selection of Resistant Viruses. Selections were initiated by inoculating 1.0×10^6 MT-2 cells at an MOI of 0.1 with plasmid derived HIV-1LAI which had been passaged as cell-free virus 10 times in MT-2 cells in the absence of compound (see Bazmi, et. al., Antimicrobial Agents and Chemotherapy 44:1783-1788). Cells were pretreated with drug for two hours prior to inoculation with virus. For each selection, the starting concentration was the IC50 of the compound, and the selective pressure (i.e. drug concentration) was doubled every three passages. Viral cytopathic effects (CPE) were monitored daily. At 2+CPE (≧2 syncitia per 100× field) cell free virus supernatant was harvested and used to initiate a new cycle of infection in fresh MT-2 cells. The passaged virus was monitored regularly for a reduction in susceptibility to the compounds by determining the EC50 relative to unpassaged HIV-1LAI (Mellors, et. al., Antimicrob. Agents Chemother. 39:1087-1092).
Genetic Analyses. Virions were pelleted from culture supernatants by centrifugation at 25,000×g for 1 hour. Total RNA was extracted from the virus pellet using TRIZOL® Reagent (Gibco BRL, Grand Island, N.Y.) and resuspended in diethyl pyrocarbonate-treated sterile water. […]

The test system of assay [3] is HIV-1LAI selected with PFA, passage 17 (W88G). As to the kind of experiment: Susceptibility of virus selected in vitro with PFA, passage 17. The method, then:
as §2, §5
(§6) As controls for the invention compound selections, HIV-1LAI was passaged in the presence and absence of unmodified PFA. […] None of the mutations selected by the invention compounds or free PFA were detected in control viruses passaged in the absence of drug.

For assay [4], the system named is panel of drug resistant HIV-1 viruses. The assay can be described thus: p24 reduction assay, panel of drug resistant HIV-1 viruses (summary). As to conditions: Human immunodeficiency virus 1, read-out: EC50 values (range over strains).
Method: The μM concentration required to produce 50% inhibition of replication of the drug-resistant strain of HIV (EC50) was determined as shown in Table 1. Drug effects were measured by assaying p24 (a viral protein) in the culture medium.
The subject of assay [5] is HIV-1LAI selected with PFA, passage 15 (S117T). The assay can be described thus: Susceptibility of virus selected in vitro with PFA, passage 15. The method, then: as §2, §5, §6
The mark [6] stands for this setting: Table 6, passage 15, relative to passage 0.

For orientation: EC50 means the concentration at which the effect is half-maximal.

Structures are written as SMILES. Values joined by “and” are separate entries in the source; they are usually repeats but may differ in a detail not shown here. Identical values can stand only once.

As to `Cc1cn([C@H]2C[C@H](N=[N+]=[N-])[C@@H](CO)O2)c(=O)[nH]c1=O` [AZT, 3′-Azido-3′-deoxythymidine], the EC50 came to 35 ± 33 nM in the assay on HIV-1LAI L214F (Human immunodeficiency virus 1, MT2, L214F, read-out: AZT EC50); 12 ± 4 nM in the assay on HIV-1LAI M164I (Human immunodeficiency virus 1, MT2, M164I, read-out: AZT EC50); 40 ± 6 nM in the assay on HIV-1LAI S117T/4XAZT (Human immunodeficiency virus 1, MT2, S117T/4XAZT, read-out: AZT EC50); 43 ± 22 nM with HIV-1LAI M164I/4XAZT (Human immunodeficiency virus 1, MT2, M164I/4XAZT, read-out: AZT EC50). Also, the Fold resistance is given as 1.7 with HIV-1LAI L214F (L214F relative to wild type virus), 0.6 in the assay with HIV-1LAI M164I (M164I relative to wild type virus), 1.4 with HIV-1LAI S117T/4XAZT (S117T/4XAZT relative to wild type virus) and 1.1 with HIV-1LAI M164I/4XAZT (M164I/4XAZT relative to wild type virus).

In the case of `CCCCCCCCCCCCCCCCCCOC[C@H](COP(=O)(O)C(=O)O)OCC` [EB-PFA, 1-O-octadecyl-2-O-ethyl-sn-glycero-3-PFA], the EC50 in assay [1] (Table 6, passage 15 (W88G, L214F)) was 3700 nM. Moreover, the Fold resist. in [1] (setting [6]) is 41 and 41.1.

`CCCCCCCCCCCCCCCCCCOC[C@H](COP(=O)(O)C(=O)O)OC` [MB-PFA, 1-O-octadecyl-2-O-methyl-sn-glycero-3-PFA]: the Fold resistance in [2] (Example 6, repeated selection, after 15 passages (M164I and L214 mutations, not V75L)) stood at 31 fold. Besides, a half-maximal effect in [2] (Table 6, MB-PFA-selected virus, passage 15 (V75L, M164I, L214F)) (EC50) was put at 2160 nM. The Fold resist. in [2] (Table 6, MB-PFA-selected virus, passage 15, relative to passage 0) is 27 and 30.9.

For the compound `O=C(O)P(=O)(O)O` [PFA, phosphonoformate, reference compound], the EC50 in [3] (Human immunodeficiency virus 1, Table 6, passage 17 (W88G)) was 122000 nM; in assay [4] it was 7600 to 37400 nM; in [5] (Human immunodeficiency virus 1, Table 6, passage 15 (S117T)), 122000 nM. The Fold resist. in assay [3] (Table 6, passage 17, relative to passage 0) was 23 and 23.2; in [5] (setting [6]), 23 and 23.2.
